Results on five compounds are retold here after patent US20230000869A1, “NOVEL ALK2 INHIBITORS AND METHODS FOR INHIBITING BMP SIGNALING” (The Brigham and Women's Hospital, Inc., priority 2017, published 2023).

The target of one test is T1, ALK5 (Homo sapiens, UniProt P36897).
T1 construct: purchased Life technology (Fredrick, Md.) and/or CARNA BIOSCIENCES Inc. (Kobe, Japan)
T1 sequence (P36897 34-503): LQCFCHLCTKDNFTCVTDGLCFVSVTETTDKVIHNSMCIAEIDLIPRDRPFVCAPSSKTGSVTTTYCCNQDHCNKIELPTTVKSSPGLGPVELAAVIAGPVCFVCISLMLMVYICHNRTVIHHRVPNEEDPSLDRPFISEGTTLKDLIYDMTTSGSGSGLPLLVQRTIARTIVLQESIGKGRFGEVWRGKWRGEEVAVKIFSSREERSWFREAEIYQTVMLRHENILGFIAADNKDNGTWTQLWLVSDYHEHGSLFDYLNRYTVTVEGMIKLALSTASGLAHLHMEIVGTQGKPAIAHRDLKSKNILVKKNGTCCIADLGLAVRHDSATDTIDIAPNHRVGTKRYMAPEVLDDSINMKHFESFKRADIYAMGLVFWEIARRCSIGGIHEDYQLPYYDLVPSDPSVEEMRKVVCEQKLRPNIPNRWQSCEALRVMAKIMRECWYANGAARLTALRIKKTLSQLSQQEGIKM
Put plainly: TR-FRET enzymatic assay, ALK5 kinase, 1536-well. It is filed as biochemical. Particulars: for IC50: 10 nM ALK, Ulight topo II substrate 50 nM, ATP 10 uM (Table 1); for ALK5 Span: span of the concentration-response curve. The text has this:
(§1) We have developed six ALK kinase enzyme assays for determination of compound activities on ALK1, ALK2, ALK3, ALK4, ALK5 and ALK6. For the assay development, we had tested a number of substrates and assay conditions that led to the final optimized assay protocols with good assay windows with signal to basal (S/B) ratios above 20 fold for all six ALK assays (FIG. 1). In our knowledge, these ALK kinase assays have not been reported elsewhere.
(§2) ALK1 and ALK2-ALK6 were obtained from Life technology (Fredrick, Md.) and CARNA BIOSCIENCES Inc. (Kobe, Japan). Ulight-DNA Topoisomerase 2 alpha (Thr-1342) peptide and Europium anti-phospho-DNA Topoisomerase 2 alpha (Thr-1342) antibody was from Perkin Elmer Inc. The kinase buffer was composed of 50 mM HEPES pH7.0, 10 mM MgCl2, 3 mM MnCl2, 0.005% Tween-20 and 2 mM DTT. The compound plates and the white solid MB assay plates were purchased from Greiner Bio-one (Monroe, N.C.).
(§3) The binding of Eu-anti-phospho-peptide antibody to the phosphorylated Ulight peptide substrate bring both Eu donor and Ulight acceptor dye into close proximity. Upon excitation at 320-340 nm, the emission energy from Eu donor is transferred to Ulight acceptor dye that will generate light at 665 nm. The intensity light emission is proportional to the level of the peptide phosphorylation by ALKs. The assay was optimized and performed in 1536 plate (Table 1). Briefly, the ALKs enzymatic assay was initiated by dispense 2.5 ul enzyme with a final concentration at 10 nM prepared in 1× kinase reaction buffer. The assay plate was then added with compounds with the Pintool station (23 nl/well compound dilutions in DMSO solution) that was followed by incubation at room temperature for 10 minutes. Then 2.5 ul/well substrate was added in which 50 nM peptide substrate mixed with 10 uM, 100 uM or 1 mM ATP (final concentration). The assay plate was incubated at room temperature for 60 minutes and the kinase reaction was stopped by addition of 5 ul/well of 4 nM Eu-anti-phospho-peptide antibody with 12 mM EDTA prepared in 1× detection buffer. The assay plate was measured in an EnVision plate reader (Perkin Elmer) in the TR-FRET detection mode (excitation at 340 nm and emission at 665 nm).
On the technique in general: In TR-FRET formats the signal depends on donor and acceptor labels being close together.

The target in another test is T2, ALK6 (Homo sapiens, UniProt O00238).
T2 construct: purchased Life technology (Fredrick, Md.) and/or CARNA BIOSCIENCES Inc. (Kobe, Japan)
In words: TR-FRET enzymatic assay, ALK6 kinase, 1536-well. The format is biochemical. The following applies: for IC50: 10 nM ALK, Ulight topo II substrate 50 nM, ATP 10 uM (Table 1); for ALK6 Span: span of the concentration-response curve.
Excerpt: as §1, §2, §3

The next test concerns the target ACVR2A (Homo sapiens, UniProt P27037). In words: LanthaScreen Eu kinase binding assay, BMP type II receptor ACVR2A. The following applies: 10-point titration from 10 μM, 3-fold serial dilution, Life Technologies. An excerpt:
For the detailed description of LanthaScreen™ Eu kinase binding assay condition, please see: https://www.thermofisher.com/us/en/home/industrial/pharma-biopharma/drug-discovery-development/target-and-lead-identification-and-validation/kinasebiology/kinase-activity-assays/lanthascreentm-eu-kinas e-binding-assay/lanthascreen-eu-kinase-binding-assay-validation-table.html.

Another test addresses ACVR2B (Homo sapiens, UniProt Q13705). In words: LanthaScreen Eu kinase binding assay, BMP type II receptor ACVR2B. The following applies: 10-point titration from 10 μM, 3-fold serial dilution, Life Technologies. As to the method: Kinase Profiling BMP Type II Receptor Experimental Procedure (Life Technologies, 5225 Vernona Road, Madison, Wis. 53744)
The measurement of each compound's half maximal inhibitory concentration (IC50) for BMP type II receptors (ACVR2A, ACVR2B, BMPR2 and TGFbR2) was carried out at Life Technologies by using its 10-point titration (starting concentration: 10 μM with 3-fold serial dilution) LanthaScreen™ biochemical kinase assay protocol. For the detailed description of LanthaScreen™ Eu kinase binding assay condition, please see: https://www.thermofisher.com/us/en/home/industrial/pharma-biopharma/drug-discovery-development/target-and-lead-identification-and-validation/kinasebiology/kinase-activity-assays/lanthascreentm-eu-kinas e-binding-assay/lanthascreen-eu-kinase-binding-assay-validation-table.html.

In a further test the test system is BMP6. In words: Cell assay HTRF BMP6 (Table 15). The format is cell-based.

T2 sequence (O00238 14-502): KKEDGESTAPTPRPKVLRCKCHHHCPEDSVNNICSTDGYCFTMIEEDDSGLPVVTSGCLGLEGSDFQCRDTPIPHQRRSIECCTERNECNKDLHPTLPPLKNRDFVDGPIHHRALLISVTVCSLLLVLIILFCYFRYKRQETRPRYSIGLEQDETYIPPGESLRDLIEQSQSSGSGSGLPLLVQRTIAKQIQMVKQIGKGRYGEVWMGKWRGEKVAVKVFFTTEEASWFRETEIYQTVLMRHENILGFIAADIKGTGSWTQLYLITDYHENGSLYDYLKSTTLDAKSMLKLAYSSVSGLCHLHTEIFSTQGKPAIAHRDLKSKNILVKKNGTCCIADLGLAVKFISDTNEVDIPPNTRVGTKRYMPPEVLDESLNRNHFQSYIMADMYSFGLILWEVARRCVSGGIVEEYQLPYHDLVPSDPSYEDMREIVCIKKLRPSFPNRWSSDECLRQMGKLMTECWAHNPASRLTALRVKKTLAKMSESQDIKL
Chain of ACVR2B (Q13705 19-512): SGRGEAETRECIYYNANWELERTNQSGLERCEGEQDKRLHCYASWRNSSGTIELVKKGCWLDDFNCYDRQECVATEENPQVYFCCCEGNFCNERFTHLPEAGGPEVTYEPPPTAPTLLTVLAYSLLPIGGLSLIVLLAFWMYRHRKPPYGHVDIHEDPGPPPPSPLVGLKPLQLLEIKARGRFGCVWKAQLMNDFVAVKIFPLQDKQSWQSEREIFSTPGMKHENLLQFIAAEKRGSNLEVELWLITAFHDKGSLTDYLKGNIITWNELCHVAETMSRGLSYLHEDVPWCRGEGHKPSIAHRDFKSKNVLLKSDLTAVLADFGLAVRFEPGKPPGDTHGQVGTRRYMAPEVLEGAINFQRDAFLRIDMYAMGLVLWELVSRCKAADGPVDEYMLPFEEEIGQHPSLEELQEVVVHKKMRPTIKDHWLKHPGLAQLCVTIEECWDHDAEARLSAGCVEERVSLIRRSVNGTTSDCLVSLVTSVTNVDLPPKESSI
Chain of ACVR2A (P27037 20-513): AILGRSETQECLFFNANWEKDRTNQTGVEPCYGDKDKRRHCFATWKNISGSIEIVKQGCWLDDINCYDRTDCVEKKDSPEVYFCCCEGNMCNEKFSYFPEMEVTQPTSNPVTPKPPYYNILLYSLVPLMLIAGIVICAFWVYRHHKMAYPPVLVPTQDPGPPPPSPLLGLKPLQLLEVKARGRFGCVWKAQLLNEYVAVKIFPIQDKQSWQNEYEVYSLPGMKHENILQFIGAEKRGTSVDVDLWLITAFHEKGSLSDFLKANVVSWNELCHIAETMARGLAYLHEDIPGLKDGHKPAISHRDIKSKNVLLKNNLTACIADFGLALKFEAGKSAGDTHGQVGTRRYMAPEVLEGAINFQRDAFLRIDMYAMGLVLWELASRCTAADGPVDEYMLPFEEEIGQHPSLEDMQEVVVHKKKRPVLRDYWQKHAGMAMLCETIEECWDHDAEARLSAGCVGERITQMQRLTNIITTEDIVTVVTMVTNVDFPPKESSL

On to `Cc1cc(-c2cnn3cc(N4CCC(N5CCN(C)CC5)CC4)cnc23)c2ccccc2n1` [Compound 8], for which the concentration for half-maximal inhibition (IC50) (usually the concentration at which inhibition is half-maximal) at ALK5 is 2470 nM; on ALK6, 2400 nM; on ACVR2A, 1280 nM; on ACVR2B, 745 nM; with BMP6 it was 270 nM. The “ALK5 Span” value at ALK5 came out at 100.3. Further, the “ALK6 Span” value at ALK6 is given as 86.5.
`Cc1cc(-c2cnn3cc(N4CCC(N5CCOCC5)CC4)cnc23)c2ccccc2n1` [Compound 11]: at ALK5, the half-maximal inhibitory concentration (IC50) came out at 2080 nM and the “ALK5 Span” value was found to be 102.1. Besides, on ALK6, inhibition was half-maximal at 2980 nM (IC50) and the “ALK6 Span” value is on record as 89.9.
The matching figures for `COc1cc2c(-c3cnn4cc(N5CCC(N6CCN(C)CC6)CC5)cnc34)ccnc2cc1F` [Compound 15, 7-fluoro-6-methoxy-4-(6-(4-(4-methylpiperazin-1-yl)piperidin-1-yl)pyrazolo[1,5-a]pyrimidin-3-yl)quinoline]: 8920 nM, 96, 10300 nM and 80.81.
The matching figures for `Cc1cc(-c2cnn3cc(N4CCC(N5CCNCC5)CC4)cnc23)c2ccccc2n1` [Compound 34]: 4680 nM, 105.678, 4060 nM and 91.28.
For the compound `c1ccc2c(-c3cnn4cc(-c5ccc(N6CCNCC6)cc5)cnc34)ccnc2c1` [TRND00262637-13], the results for the IC50 on ACVR2A, on ACVR2B and in the test with BMP6 were 14.5 nM, 20 nM and 69 nM, respectively.
